Test results published in ChEMBL document CHEMBL4340544, “Discovery of 4,6-bis(benzyloxy)-3-phenylbenzofuran as a novel Pin1 inhibitor to suppress hepatocellular carcinoma via upregulating microRNA biogenesis” (Bioorg Med Chem, 2019).
The source made the active and inactive calls. The rule behind the calls is not given here.

What was measured:
[1] = molecular target: T1, Peptidyl-prolyl cis-trans isomerase NIMA-interacting 1 (Homo sapiens, UniProt Q13526); experiment: Inhibition of N-terminal 6-His tagged full length Pin1 (unknown origin) expressed in Escherichia coli at 10 uM using Suc-AEPF-pNA as substrate preincubated for 10 mins followed by substrate addition and measured for 180 secs by spectrophotometry relative to untreated control
[2] = molecular target: T1, Peptidyl-prolyl cis-trans isomerase NIMA-interacting 1; experiment: Inhibition of N-terminal 6-His tagged full length Pin1 (unknown origin) expressed in Escherichia coli using Suc-AEPF-pNA as substrate preincubated for 10 mins followed by substrate addition and measured for 180 secs by spectrophotometry
[3] = molecular target: Peptidyl-prolyl cis-trans isomerase NIMA-interacting 4 (Homo sapiens) (UniProt Q9Y237); experiment: Inhibition of recombinant N-terminal His6-tagged Pin4 (unknown origin) expressed in Escherichia coli at 1 to 50 uM using Suc-AEPF-pNA as substrate preincubated for 10 min followed by substrate addition measured for 180 secs
[4] = molecular target: Peptidyl-prolyl cis-trans isomerase A (Homo sapiens) (UniProt P62937); experiment: Inhibition of recombinant N-terminal His6-tagged Cyclophilin A (unknown origin) expressed in Escherichia coli at 1 to 50 uM using Suc-AEPF-pNA as substrate preincubated for 10 min followed by substrate addition measured for 180 secs
[5] = molecular target: T1, Peptidyl-prolyl cis-trans isomerase NIMA-interacting 1; experiment: Inhibition of recombinant N-terminal His6-tagged Pin1 (unknown origin) expressed in Escherichia coli at 1 to 50 uM using Suc-AEPF-pNA as substrate preincubated for 10 min followed by substrate addition measured for 180 secs
SK-HEP1 [6] = experiment: Cytotoxicity against human SKHEP1 cells assessed as reduction in cell viability by MTT assay; type: functional, cell-based
SNU-423 = experiment: Cytotoxicity against human SNU423 cells assessed as reduction in cell viability by MTT assay; type: functional, cell-based
SK-HEP1 [7] = experiment: Antiproliferation activity against human SKHEP1 cells assessed as reduction in colony formation at 2.5 uM measured after 7 days by crystal violet staining based microscopic analysis; type: functional, cell-based
[8] = molecular target: T1, Peptidyl-prolyl cis-trans isomerase NIMA-interacting 1; experiment: Inhibition of Pin1 in human SKHEP1 cells assessed as increase in cytoplasm distribution of XPO5 at 2.5 uM incubated for 36 hrs by DAPI staining based confocal microscopic analysis; type: cell-based
[9] = molecular target: T1, Peptidyl-prolyl cis-trans isomerase NIMA-interacting 1; experiment: Inhibition of Pin1 in human SKHEP1 cells assessed as increase in miR-122 expression at 2.5 uM incubated for 36 hrs by quantitative RT PCR analysis; type: cell-based
[10] = molecular target: T1, Peptidyl-prolyl cis-trans isomerase NIMA-interacting 1; experiment: Inhibition of Pin1 in human SKHEP1 cells assessed as increase in miR-29b expression at 2.5 uM incubated for 36 hrs by quantitative RT PCR analysis; type: cell-based
[11] = molecular target: Peptidyl-prolyl cis-trans isomerase FKBP1A (Homo sapiens) (UniProt P62942); experiment: Inhibition of recombinant N-terminal His6-tagged FKBP12 (unknown origin) expressed in Escherichia coli at 1 to 50 uM using Suc-AEPF-pNA as substrate preincubated for 10 min followed by substrate addition measured for 180 secs
Peptidyl-prolyl cis-trans isomerase FKBP1A (Homo sapiens), sequence (P62942 whole entry, looked up): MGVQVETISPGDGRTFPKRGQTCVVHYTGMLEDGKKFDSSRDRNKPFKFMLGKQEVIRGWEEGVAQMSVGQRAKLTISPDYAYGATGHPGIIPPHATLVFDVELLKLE

T1 sequence (Q13526 whole entry): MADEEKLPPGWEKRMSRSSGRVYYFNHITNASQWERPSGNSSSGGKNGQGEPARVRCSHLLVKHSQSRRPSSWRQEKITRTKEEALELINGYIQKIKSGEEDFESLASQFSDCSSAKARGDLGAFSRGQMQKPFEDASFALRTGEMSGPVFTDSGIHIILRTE
Peptidyl-prolyl cis-trans isomerase NIMA-interacting 4 (Homo sapiens), sequence (Q9Y237 whole entry): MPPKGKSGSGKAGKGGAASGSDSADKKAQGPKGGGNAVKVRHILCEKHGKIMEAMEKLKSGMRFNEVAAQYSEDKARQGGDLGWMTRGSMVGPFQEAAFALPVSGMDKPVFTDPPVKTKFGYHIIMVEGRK
Peptidyl-prolyl cis-trans isomerase A (Homo sapiens), sequence (P62937 whole entry, looked up): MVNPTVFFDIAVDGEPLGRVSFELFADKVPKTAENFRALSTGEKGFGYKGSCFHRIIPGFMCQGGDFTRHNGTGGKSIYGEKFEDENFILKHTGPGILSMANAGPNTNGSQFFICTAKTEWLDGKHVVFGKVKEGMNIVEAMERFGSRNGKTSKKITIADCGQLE

Compound	inhibition [1] [%]	other results
Cc1ccc(-c2coc3c(C)c(C)ccc23)cc1	64.6	
COc1cccc2c(-c3ccccc3)coc12	22.2	
COc1ccc(-c2coc3ccc([N+](=O)[O-])cc23)cc1	43.7	
c1ccc(-c2oc3ccccc3c2-c2ccccc2)cc1	15.8	
Oc1ccc2occ(-c3ccc(Cl)cc3)c2c1	13.8	
c1coc(-c2coc3ccccc23)c1	22.2	
COc1ccc(-c2coc3ccccc23)cc1	54.8	
Cc1ccc(-c2coc3ccc([N+](=O)[O-])cc23)cc1	32.6	
COc1ccc2occ(-c3ccc(Cl)cc3)c2c1	18	
COc1cc(OC)c2c(C)coc2c1	45.9	
Cc1ccc(-c2coc3ccc(O)cc23)cc1	33.1	
COc1ccc2occ(-c3ccc(F)cc3)c2c1	30.7	
COc1ccc2c(C)coc2c1	65.1	
CC(C)(C)c1ccc2c(-c3ccc4c(c3)OCO4)coc2c1	63.7	
COc1ccc2occ(-c3ccc(C)c(C)c3)c2c1	23.7	
Oc1ccc2occ(-c3ccc(F)cc3)c2c1	23.8	
COc1ccc2c(-c3ccccc3)coc2c1		IC50 [2]: 2.23 µM
Clc1cc(Cl)c2occ(-c3ccccc3)c2c1	16.2	
O=C1C=CC(=O)c2c(O)cccc21	52.6	
c1ccc(COc2cc(OCc3ccccc3)c3c(-c4ccccc4)coc3c2)cc1	75.4	IC50 [2]: 0.874 µM; inhibition [3]: inactive; inhibition [4]: inactive; inhibition [5]: Active; IC50 (SK-HEP1 [6]): 1.14 µM; IC50 (SNU-423): 2.73 µM; Activity (SK-HEP1 [7]): Active; inhibition [8]: Active; inhibition [9]: Active; inhibition [10]: Active; inhibition [11]: inactive
c1ccc2c(-c3ccsc3)coc2c1	43.5	
O=[N+]([O-])c1ccc2occ(-c3cccc4ccccc34)c2c1	14	

Compound	inhibition [1] [%]	other results
CC(C)(C)c1ccc2occ(-c3ccc(Br)cc3)c2c1	28.9	
COc1ccc2occ(-c3ccccc3)c2c1	27	
Clc1ccc2occ(-c3ccccc3)c2c1	19.2	
Clc1ccc2oc(-c3ccccc3)c(-c3ccccc3)c2c1	22.9	
COc1cccc(-c2coc3ccccc23)n1	34.8	
Oc1ccc2occ(-c3ccccc3)c2c1	28	
O=[N+]([O-])c1ccc2occ(-c3ccc4c(c3)OCO4)c2c1	23.4	
Cc1cccc2c(-c3ccccc3)c(-c3ccccc3)oc12	19.6	
COc1ccc2occ(-c3ccc(C)cc3)c2c1	29.8	
Cc1ccc(-c2coc3ccc(O)cc23)cc1C	27.8	
Clc1ccc(-c2coc3ccccc23)cc1	18.3	
Brc1ccc2occ(-c3ccccc3)c2c1	19.5	
CC(C)(C)c1ccc2occ(-c3ccccc3)c2c1	11	
COc1cccc2occ(-c3ccccc3)c12	59.5	
COc1ccc(-c2coc3ccc(C#N)cc23)cc1	38.2	
COc1ccc2oc(-c3ccccc3)c(-c3ccccc3)c2c1	25.7	
c1ccc(-c2coc3ccccc23)cc1	12.4	
Cc1ccc(-c2coc3c(Cl)cc([N+](=O)[O-])cc23)cc1	30.3	
Cc1ccc2oc(-c3ccccc3)c(-c3ccccc3)c2c1	13.9	
Clc1cccc2c(-c3ccccc3)c(-c3ccccc3)oc12	13.6	
N#Cc1ccc2occ(-c3ccc4c(c3)OCO4)c2c1	46.9	
COc1cc(OC)c2c(-c3ccccc3)coc2c1	69.6	
